{"source": "paper PMC5996347", "about": "“2-Mercapto-Quinazolinones as Inhibitors of Type II NADH Dehydrogenase and Mycobacterium tuberculosis: Structure–Activity Relationships, Mechanism of Action and Absorption, Distribution, Metabolism, and Excretion Characterization” (ACS Infectious Diseases, 2018)", "key": {"HepG2 [1]": {"tested_on": "HepG2"}, "HepG2 [2]": {"tested_on": "HepG2", "assay": "cells", "conditions": "Homo sapiens, HepG2, read-out: HepG2 IC50"}, "ndhA mutant": {"tested_on": "ndhA mutant", "assay_type": "cell-based", "conditions": "results not shown"}, "MTb H37Rv": {"tested_on": "MTb H37Rv", "assay": "Intracellular ATP levels (BacTiter-Glo)", "conditions": "24 h drug exposure"}, "M. tuberculosis H37Rv [3]": {"tested_on": "M. tuberculosis H37Rv", "assay": "Extracellular flux analysis (oxygen consumption rate)", "conditions": "1 at 39 μM, 7 at 45 μM"}, "M. tuberculosis H37Rv [4]": {"tested_on": "M. tuberculosis H37Rv", "assay": "H37Rv MIC in GAST medium", "assay_type": "cell-based, Mycobacterium tuberculosis", "conditions": "Mycobacterium tuberculosis, H37RV"}, "physchem": {"assay": "physchem", "assay_type": "physicochemical", "conditions": "pH 7.4", "procedure": "The chromatographic hydrophobicity index (CHI) was determined according the method previously described.[43],[44] Briefly, test compounds were prepared as 0.5 mM solutions in 50:50 acetonitrile/water and analyzed by reversed-phase HPLC-UV (wavelength 254 nm) using a Phenomenex Luna C18 100 Å, 150 × 4.6 mm, 5 μm column with a gradient of aqueous phase (50 mM ammonium acetate (pH 7.4)) and mobile phase (acetonitrile). By plotting the retention time of a set of reference compounds against known CHI values, the CHI value of test compounds was calculated according to their retention time."}, "piniBAC reporter strain": {"tested_on": "piniBAC reporter strain", "assay_type": "cell-based, Mycobacterium tuberculosis", "conditions": "upregulation of iniBAC promoter"}, "[5]": {"tested_on": "cyd knockout strain (cydC::aph)", "assay_type": "cell-based, Mycobacterium tuberculosis"}}, "note": "Read-outs that look alike come from different tables or passages of the source.", "data": [{"smiles": "O=C(CSc1nc2ccccc2c(=O)[nH]1)NC1CCCCC1", "note": "[Compound 1, N-Cyclohexyl-2-((4-oxo-3,4-dihydroquinazolin-2-yl)thio)acetamide]", "values": [{"measurement": "HepG2 cytotoxicity (in words)", "setting": "HepG2 [1]", "value": "no noticeable cytotoxicity"}, {"measurement": "IC50", "setting": "HepG2 [2]", "value": "> 50", "unit": "µM"}, {"measurement": "MIC to ndhA mutant strain compared with WT", "setting": "ndhA mutant", "value": "indistinguishable from WT cells"}, {"measurement": "Cellular ATP levels in MTb", "setting": "MTb H37Rv", "value": "depletion of cellular ATP levels"}, {"measurement": "Effect on maximal respiration after CCCP uncoupling", "setting": "M. tuberculosis H37Rv [3]; CCCP 3 μM, compared to untreated control", "value": "significantly diminished maximal respiration"}, {"measurement": "Effect on basal MTb OCR", "setting": "M. tuberculosis H37Rv [3]; ~45 min, glucose or palmitate", "value": "minimal effect"}, {"measurement": "MIC", "setting": "M. tuberculosis H37Rv [4]; read-out: GAST MIC", "value": 0.3, "unit": "µM"}, {"measurement": "MIC", "setting": "M. tuberculosis H37Rv [4]; read-out: GAST MIC in ng/mL", "value": 95, "unit": "ng/mL"}, {"measurement": "chromatographic logD", "setting": "physchem", "value": 1.8}, {"measurement": "pini-LUC reporter", "setting": "piniBAC reporter strain", "value": "Not likely cell wall inhibitor"}, {"measurement": "Cyd KO reporter", "setting": "[5]", "value": "Not likely QcrB inhibitor"}]}]}
